Test results from patent US10954513B2, “RNA-guided transcriptional regulation and methods of using the same for the treatment of back pain” (UNIVERSITY OF UTAH RESEARCH FOUNDATION, priority 2015, dated 2021).

Tests used:
TNFR1 [1] = test: Human NP cell CRISPRi: TNFR1 knockdown (qRT-PCR); type: cell-based; conditions: primary human NP cells
Description: Quantitative RT-PCR was performed to identify TNFR1 knockdown in these primary human NP cells. Additionally, flow-cytometry was performed to determine transduction efficiency in human NP cells.

TNFR1 [2] = test: Guide RNA screening in HEK293T cells (qPCR), TNFR1; type: cell-based, human; conditions: HEK293T cells expressing dCas9-KRAB, 48 hours post transfection, relative to non-target gRNA
Source text: (§1) Using the UCSC genome browser (GRCh37/hg19), the 5-UTR and the promoter region, 1000 base pairs upstream were selected and input into the CRISPR design tool (crispr.mit.edu). This tool outputs 20 bp gRNAs that are followed on their 3′ end by the PAM sequence NGG, which is specific to the CRISPR-Cas9 system derived from Streptococcus pyogenes. Additionally, the CRISPR design tool scores the potential gRNA sequences based on the number of off-target sites they have and how many are within genes (e.g., higher score means less off-target sites). […]
(§2) Total RNA was harvested from cells using Purelink RNA mini kit (Ambion). […] Changes in gene expression were expressed as fold changes in mRNA expression relative to the nontarget control, and normalized to GAPDH mRNA expression, using the ΔΔCt method.
(§3) HEK293T cells stably expressing dCas9-KRAB GFP were seeded in 6-well plates at a density of 600,000 cells/well in DMEM-HG with 10% FBS. […] Subsequently each sample was then run through taqman qPCR using primers for TNFRSF1A or IL1R1 and housekeeping gene GAPDH to quantify downregulation of each gene by each guide. Gene downregulation was quantified using the ΔΔCt method to characterize fold change relative non-target gRNA expressing cells.

[3] = test system: NF-κB activity in HEK293T cells; test: NF-κB activity assay in HEK293T cells dosed with TNF-α; type: cell-based, human
Description: HEK293T cells and hADMSCs were transduced with the earlier mentioned NF-κB reporter vector and analyzed for changes in NF-κB activity in response to dosing cells with TNF-α/IL-1β (RnD systems, ProSpec). To further describe, cells expressing the NF-κB reporter were plated in white 96-well plates (HEK293T cells at 25,000 cells/well and hADMSCs at 5000 cells/well) and allowed to attach overnight. The next day cells were dosed with the appropriate amounts of inflammatory cytokines (0, […], 1, and/or 10 ng/mL of TNF-α/IL-1β) for 24 hours. At 24 hours luminescence corresponding to NF-κB activity was measured in one set of cells using the bright glo assay (Promega) and cell number was measured on another set of cells under the same treatment using the real-time glo assay (Promega). Changes in NF-κB activity were quantified as a fold change in luminescence relative to the no dose control for each cell type, with NF-κB activity normalized to cell number.

IL1R1 = test: Guide RNA screening in HEK293T cells (qPCR), IL1R1; type: cell-based, human; conditions: HEK293T cells expressing dCas9-KRAB, 48 hours post transfection, relative to non-target gRNA
Source text: as §1, §2, §3

AKAP 150 (rat) = AKAP 150 (rat) (UniProt P24587); test: cell-based or functional assay
human IL-6 (human) = human IL-6 (human) (UniProt P05231); test: cell-based or functional assay
Chain of UniProt P05231 (P05231 30-212 limits assumed): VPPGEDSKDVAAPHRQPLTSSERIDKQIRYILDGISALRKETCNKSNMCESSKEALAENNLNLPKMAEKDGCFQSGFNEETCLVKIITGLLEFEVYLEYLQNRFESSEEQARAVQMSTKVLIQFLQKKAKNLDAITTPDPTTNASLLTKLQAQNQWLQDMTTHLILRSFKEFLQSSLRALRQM

Chain of UniProt P24587 (P24587 whole entry): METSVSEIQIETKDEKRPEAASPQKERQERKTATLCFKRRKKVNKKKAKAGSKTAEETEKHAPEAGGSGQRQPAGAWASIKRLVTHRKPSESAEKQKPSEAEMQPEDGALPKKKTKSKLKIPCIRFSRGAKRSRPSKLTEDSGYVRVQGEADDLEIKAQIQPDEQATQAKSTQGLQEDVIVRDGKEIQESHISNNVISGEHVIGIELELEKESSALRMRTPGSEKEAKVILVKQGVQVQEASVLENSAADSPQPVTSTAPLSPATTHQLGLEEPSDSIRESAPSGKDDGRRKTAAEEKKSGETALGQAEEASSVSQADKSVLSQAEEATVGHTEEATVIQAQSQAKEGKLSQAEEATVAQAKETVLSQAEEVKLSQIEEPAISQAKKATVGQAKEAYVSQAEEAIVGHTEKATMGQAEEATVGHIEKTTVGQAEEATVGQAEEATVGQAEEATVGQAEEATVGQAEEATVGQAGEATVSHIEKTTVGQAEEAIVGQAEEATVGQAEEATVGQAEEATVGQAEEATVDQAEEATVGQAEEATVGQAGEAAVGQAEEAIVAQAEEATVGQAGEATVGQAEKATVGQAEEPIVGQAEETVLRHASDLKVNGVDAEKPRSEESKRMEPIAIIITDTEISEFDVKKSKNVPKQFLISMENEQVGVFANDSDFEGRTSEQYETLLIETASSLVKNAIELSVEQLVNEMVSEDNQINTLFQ

Substance: 5′-AUAAGCGUCCGACACAUGAU-3′ (expressed or natural sequence) [gRNA 4 for TNFR1, 82]
- TNFR1 knockdown in NP cells (TNFR1 [1]; with dCas9-KRAB): 55%
- TNFR1 knockdown in NP cells (TNFR1 [1]; with dCas9 alone): no knockdown

Substance: 5′-CAGUGUUGCAACAGCGGGAC-3′ (expressed or natural sequence) [gRNA 1 for TNFR1, 79]
- TNFR1 gene downregulation (TNFR1 [2]): up to 87%
- NF-κB activity at lowest dose ([3]; 0.15 ng/mL TNF-α): no significant increase in NF-κB activity
- decreases in NF-κB activity ([3]; 24 hours of dosing with 0, 0.15, 1, and 10 ng/mL TNF-α): up to 95%

Substance: 5′-GGAGUCGCCAACUCAAUUCG-3′ (expressed or natural sequence) [gRNA 1 for IL1R1, 84]
- IL1R1 gene downregulation (IL1R1): 67%

Substance: AKAP inhibitor peptide St-Ht31 (Promega)
- percentage of neurons firing at 39° C. in degenerative IVD conditioned media (AKAP 150 (rat)): 15.5%

Substance: control peptide St-Ht31P (Promega)
- percentage of neurons firing at 39° C. in degenerative IVD conditioned media (AKAP 150 (rat)): 61.9%

Substance: mouse isotype control antibody (Life Technologies)
- T50 of neuron firing (Boltzmann fit) (human IL-6 (human)): 38.2 ° C.
- maximum firing response of DRG neurons (human IL-6 (human)): 66%
